≈ marks a conversion by molar mass, not a printed value.
Key:
[1] = Measurement of solubility (Experimental Example 3); assay type: physicochemical; conditions: Phosphate buffer, room temperature, shaken 120 minutes
Description: The improved solubility of compound A by amorphization was observed.

physchem = conditions: thermodynamic from solid
[2] = Oral absorption test in dog (Experimental Example 6); assay type: in vivo; conditions: 50 mg of compound A
Experimental: The dogs were made to fast from the evening on the day before the administration (before more than 16 hours from the scheduled administration time) to the final blood collection on the day of the administration (24 hours after the administration). After the end of the final blood collection, food was given in accordance with the feeding amount of the breeding facility (the fasting period was from 24 hours or more to less than 48 hours). Water was not given during a time period from 30 minutes before the administration to 2 hours after the administration, and then, it was free to drink water.

[3] = Powder X-ray diffraction test, crystallinity before and after storage (Experimental Example 5); assay type: physicochemical; conditions: at least 70° C. for 9 days, or 40° C., 75% RH for 1 month; FIG. 2
Experimental: The amorphous form of compound A of Example 2 was put into glass bottles, and the bottles were sealed and allowed to stand under the predetermined conditions, and the crystallinity before and after storage was evaluated using a powder X-ray diffraction method. In “40° C., 75% RH for 1 month (opened)”, the storage was carried out under the conditions where the bottle was not sealed.

[4] = Measurement of related substances by HPLC after storage in glass bottles (Experimental Example 4); assay type: physicochemical
Experimental: The solid dispersion of Example 1 and the amorphous form of compound A of Example 2 were put into glass bottles, and the bottles were allowed to stand under the predetermined conditions, after being sealed or without being sealed, and the amount of each related substance of compound A was measured by an HPLC method.
The measurement of related substances was carried out in accordance with the following conditions (the following tests for related substances were carried out in a similar fashion.): • As a HPLC column, Unison UK-Phenyl (particle size=3 μm, 4.6 mm (inner diameter)×25 cm, manufactured by Imtakt), or its equivalent, was used, and maintained at 40° C. • As mobile phase A, a mixed solution (4:1) of a perchlorate solution (pH 4.0) and methanol was used. • As mobile phase B, acetonitrile was used. • Sample solutions were prepared by diluting samples with a mixed solution of mobile phase A/mobile phase B (7:3) so that the concentration of compound A became 250 μg/mL. • Related substances were measured using an ultraviolet absorption spectrophotometer (wavelength: 225 nm), in accordance with the gradient program shown in Table 3 below, and at a flow rate in which the retention time of compound A was about 26 minutes. The percentage of the peak area of each related substance was calculated, as a percentage with respect to the total peak area of compound A and its related substances.

[5] = glass bottle not sealed (*), 40° C., 75% RH for 1 month
[6] = glass bottle, sealed, 25° C., 60% RH for 1 month
[7] = glass bottle, sealed, 40° C., 75% RH for 1 month
[8] = glass bottle, sealed, 70° C. for 9 days

## C[C@@H](O)C(=N)NS(=O)(=O)c1cc(C(=O)C(C(=O)c2cc(F)ccc2F)=C2Nc3ccccc3N2)ccc1F [Compound A, (2R)—N-({5-[3-(2,5-difluorophenyl)-2-(1,3-dihydro-2H-benzimidazole-2-ylidene)-3-oxopropanoyl]-2-fluorophenyl}sulfonyl)-2-hydroxypropane imide amide]
[1]; pH 6.8, 0.10% Sodium lauryl sulfate, listed as Compound A in crystalline state
  Solubility: 69 µg/mL (≈ 127 µM)
[1]; pH 6.8, listed as Compound A in crystalline state
  Solubility: 15 µg/mL (≈ 27.5 µM)
physchem; pH 1.2, simulated gastric fluid
  Solubility: ~9.9 µg/mL (≈ 18.2 µM)
physchem; pH 6.8, aqueous buffer
  Solubility: ~9.8 µg/mL (≈ 18 µM)

## C[C@@H](O)C(=N)NS(=O)(=O)c1cc(C(=O)C(C(=O)c2cc(F)ccc2F)=C2Nc3ccccc3N2)ccc1F [Example 2, (2R)—N-({5-[3-(2,5-difluorophenyl)-2-(1,3-dihydro-2H-benzimidazole-2-ylidene)-3-oxopropanoyl]-2-fluorophenyl}sulfonyl)-2-hydroxypropane imide amide]
[1]; pH 6.8, 0.10% Sodium lauryl sulfate, listed as Ex. 2
  Solubility: 326 µg/mL (≈ 599 µM)
[1]; pH 6.8, listed as Ex. 2
  Solubility: 75 µg/mL (≈ 138 µM)
[2]
  AUC0-24 h ratio to the suspension of Example 2: 1.00
  Cmax ratio to the suspension of Example 2: 1.00
  oral absorbability: good oral absorbability
[2]; plasma, suspension in 0.5% methylcellulose
  Cmax: 793 ± 165 ng/mL
[2]; plasma, suspension in 0.5% methylcellulose, read-out: AUC0-24 hr
  AUC(0-t): 4920 ± 1220 ng·h/mL
[3]
  crystallinity after storage (powder X-ray diffraction): maintained the amorphous state alone
[4]; At the beginning of storage
  Maximum related substance: 0.80%
  Total amount of related substances: 0.88%
[4]; at least 70° C. for 9 days, 40° C., 75% RH for 1 month, or 25° C., 60% RH for 1 month
  significant increase in related substances: not observed
[4]; [5]
  Maximum related substance: 0.77%
  Maximum related substance, increased amount from the beginning of the storage: (−0.03) %
  Total amount of related substances: 0.98%
  Total amount of related substances, increased amount from the beginning of the storage: (0.10) %
[4]; [6]
  Maximum related substance: 0.79%
  Maximum related substance, increased amount from the beginning of the storage: (−0.01) %
  Total amount of related substances: 0.99%
  Total amount of related substances, increased amount from the beginning of the storage: (0.11) %
[4]; [7]
  Maximum related substance: 0.79%
  Maximum related substance, increased amount from the beginning of the storage: (−0.01) %
  Total amount of related substances: 0.99%
  Total amount of related substances, increased amount from the beginning of the storage: (0.11) %
[4]; [8]
  Maximum related substance: 0.82%
  Maximum related substance, increased amount from the beginning of the storage: (0.02) %
  Total amount of related substances: 0.85%
  Total amount of related substances, increased amount from the beginning of the storage: (−0.03) %

From US9775832B2, “Pharmaceutical composition for oral administration” (ASTELLAS PHARMA INC., priority 2014, dated 2017)
